Reference: ChEMBL document CHEMBL1212896, “Discovery of novel cyanodihydropyridines as potent mineralocorticoid receptor antagonists” (J Med Chem, 2010)
pIC50: −log10 of the molar value. Values after ≈ are worked out from the molar mass of the structure shown.

Columns and labels:
[1] = molecular target: T1, Mineralocorticoid receptor (Homo sapiens, UniProt P08235)
T1 sequence (P08235 whole entry): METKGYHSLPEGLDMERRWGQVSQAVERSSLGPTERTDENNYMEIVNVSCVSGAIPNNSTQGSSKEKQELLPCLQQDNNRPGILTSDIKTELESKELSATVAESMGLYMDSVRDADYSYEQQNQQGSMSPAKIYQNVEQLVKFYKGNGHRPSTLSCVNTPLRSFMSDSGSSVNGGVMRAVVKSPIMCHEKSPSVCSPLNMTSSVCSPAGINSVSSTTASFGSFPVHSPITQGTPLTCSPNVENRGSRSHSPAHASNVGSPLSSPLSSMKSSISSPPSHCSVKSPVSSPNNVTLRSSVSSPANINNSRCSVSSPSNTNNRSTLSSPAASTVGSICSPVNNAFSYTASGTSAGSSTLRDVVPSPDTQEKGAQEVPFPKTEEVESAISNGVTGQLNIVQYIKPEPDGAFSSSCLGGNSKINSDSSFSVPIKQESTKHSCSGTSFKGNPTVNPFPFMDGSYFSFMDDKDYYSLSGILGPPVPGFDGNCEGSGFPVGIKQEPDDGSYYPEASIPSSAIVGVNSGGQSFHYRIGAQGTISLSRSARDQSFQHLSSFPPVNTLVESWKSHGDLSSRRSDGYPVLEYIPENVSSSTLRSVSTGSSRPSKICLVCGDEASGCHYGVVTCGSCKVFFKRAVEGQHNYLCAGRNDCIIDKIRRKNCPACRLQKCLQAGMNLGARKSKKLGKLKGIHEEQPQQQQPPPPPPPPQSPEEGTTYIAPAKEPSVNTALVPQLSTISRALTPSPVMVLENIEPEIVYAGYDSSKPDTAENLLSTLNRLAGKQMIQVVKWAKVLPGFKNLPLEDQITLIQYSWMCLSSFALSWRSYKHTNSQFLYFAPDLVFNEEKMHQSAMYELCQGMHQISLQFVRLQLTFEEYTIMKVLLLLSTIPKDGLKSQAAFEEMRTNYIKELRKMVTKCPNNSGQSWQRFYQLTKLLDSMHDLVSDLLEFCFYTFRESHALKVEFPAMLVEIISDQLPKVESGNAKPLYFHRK
Description: Antagonist activity at mineralocorticoid receptor LBD expressed in human HUH7 cells coexpressing GAL4 by luciferase reporter gene assay

Progesterone receptor = molecular target: T2, Progesterone receptor (Homo sapiens, UniProt P06401); experiment: Antagonist activity at progesterone receptor LBD expressed in human HUH7 cells coexpressing GAL4 by luciferase reporter gene assay; assay type: functional, cell-based, Huh-7
T2 sequence (P06401 whole entry): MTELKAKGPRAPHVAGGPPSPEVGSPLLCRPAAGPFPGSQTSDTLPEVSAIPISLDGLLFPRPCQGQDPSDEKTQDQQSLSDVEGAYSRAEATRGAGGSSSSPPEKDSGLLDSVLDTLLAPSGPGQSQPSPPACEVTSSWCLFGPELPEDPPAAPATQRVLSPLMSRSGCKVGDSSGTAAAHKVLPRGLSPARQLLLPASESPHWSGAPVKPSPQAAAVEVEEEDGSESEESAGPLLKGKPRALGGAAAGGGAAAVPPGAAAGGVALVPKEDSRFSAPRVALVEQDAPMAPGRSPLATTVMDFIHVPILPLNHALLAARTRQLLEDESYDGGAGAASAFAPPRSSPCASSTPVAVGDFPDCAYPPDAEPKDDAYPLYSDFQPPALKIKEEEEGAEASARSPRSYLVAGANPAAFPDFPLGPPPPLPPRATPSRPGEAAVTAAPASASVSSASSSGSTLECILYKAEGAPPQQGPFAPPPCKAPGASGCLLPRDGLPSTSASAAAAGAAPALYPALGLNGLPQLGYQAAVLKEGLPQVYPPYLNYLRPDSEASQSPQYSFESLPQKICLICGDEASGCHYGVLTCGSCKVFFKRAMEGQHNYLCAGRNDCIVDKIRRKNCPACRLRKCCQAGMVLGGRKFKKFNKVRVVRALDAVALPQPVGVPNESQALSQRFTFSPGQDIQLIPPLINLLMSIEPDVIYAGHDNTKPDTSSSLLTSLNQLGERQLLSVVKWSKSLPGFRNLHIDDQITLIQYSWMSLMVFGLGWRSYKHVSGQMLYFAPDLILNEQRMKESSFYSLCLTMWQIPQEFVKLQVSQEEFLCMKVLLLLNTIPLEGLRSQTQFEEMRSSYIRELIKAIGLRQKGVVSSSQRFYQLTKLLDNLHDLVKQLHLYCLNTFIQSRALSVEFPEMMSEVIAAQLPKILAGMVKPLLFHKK

Glucocorticoid receptor = molecular target: T3, Glucocorticoid receptor (Homo sapiens, UniProt P04150); experiment: Antagonist activity at glucocorticoid receptor LBD expressed in human HUH7 cells coexpressing GAL4 by luciferase reporter gene assay; assay type: functional, cell-based, Huh-7
T3 sequence (P04150 whole entry): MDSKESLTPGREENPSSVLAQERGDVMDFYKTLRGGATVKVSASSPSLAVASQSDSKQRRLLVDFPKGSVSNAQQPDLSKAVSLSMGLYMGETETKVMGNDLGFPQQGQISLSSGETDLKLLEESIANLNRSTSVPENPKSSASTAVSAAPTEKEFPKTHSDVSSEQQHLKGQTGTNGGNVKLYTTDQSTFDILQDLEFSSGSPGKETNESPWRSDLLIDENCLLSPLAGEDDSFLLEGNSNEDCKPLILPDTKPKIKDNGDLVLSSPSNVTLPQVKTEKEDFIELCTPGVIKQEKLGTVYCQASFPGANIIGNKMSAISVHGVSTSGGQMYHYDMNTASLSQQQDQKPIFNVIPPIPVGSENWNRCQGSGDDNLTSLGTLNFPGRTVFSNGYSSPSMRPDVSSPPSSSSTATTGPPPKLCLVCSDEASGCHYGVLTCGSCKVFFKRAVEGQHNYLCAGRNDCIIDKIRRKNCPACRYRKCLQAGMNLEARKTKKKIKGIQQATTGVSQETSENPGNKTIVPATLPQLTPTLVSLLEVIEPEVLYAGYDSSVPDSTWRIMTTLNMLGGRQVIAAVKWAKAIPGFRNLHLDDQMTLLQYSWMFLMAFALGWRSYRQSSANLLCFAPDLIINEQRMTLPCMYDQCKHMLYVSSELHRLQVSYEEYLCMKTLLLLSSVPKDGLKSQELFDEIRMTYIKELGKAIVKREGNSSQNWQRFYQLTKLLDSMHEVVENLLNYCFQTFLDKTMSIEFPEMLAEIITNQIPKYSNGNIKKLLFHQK

Androgen receptor = molecular target: T4, Androgen receptor (Homo sapiens, UniProt P10275); experiment: Antagonist activity at androgen receptor LBD expressed in human HUH7 cells coexpressing GAL4 by luciferase reporter gene assay; assay type: functional, cell-based, Huh-7
T4 sequence (P10275 whole entry): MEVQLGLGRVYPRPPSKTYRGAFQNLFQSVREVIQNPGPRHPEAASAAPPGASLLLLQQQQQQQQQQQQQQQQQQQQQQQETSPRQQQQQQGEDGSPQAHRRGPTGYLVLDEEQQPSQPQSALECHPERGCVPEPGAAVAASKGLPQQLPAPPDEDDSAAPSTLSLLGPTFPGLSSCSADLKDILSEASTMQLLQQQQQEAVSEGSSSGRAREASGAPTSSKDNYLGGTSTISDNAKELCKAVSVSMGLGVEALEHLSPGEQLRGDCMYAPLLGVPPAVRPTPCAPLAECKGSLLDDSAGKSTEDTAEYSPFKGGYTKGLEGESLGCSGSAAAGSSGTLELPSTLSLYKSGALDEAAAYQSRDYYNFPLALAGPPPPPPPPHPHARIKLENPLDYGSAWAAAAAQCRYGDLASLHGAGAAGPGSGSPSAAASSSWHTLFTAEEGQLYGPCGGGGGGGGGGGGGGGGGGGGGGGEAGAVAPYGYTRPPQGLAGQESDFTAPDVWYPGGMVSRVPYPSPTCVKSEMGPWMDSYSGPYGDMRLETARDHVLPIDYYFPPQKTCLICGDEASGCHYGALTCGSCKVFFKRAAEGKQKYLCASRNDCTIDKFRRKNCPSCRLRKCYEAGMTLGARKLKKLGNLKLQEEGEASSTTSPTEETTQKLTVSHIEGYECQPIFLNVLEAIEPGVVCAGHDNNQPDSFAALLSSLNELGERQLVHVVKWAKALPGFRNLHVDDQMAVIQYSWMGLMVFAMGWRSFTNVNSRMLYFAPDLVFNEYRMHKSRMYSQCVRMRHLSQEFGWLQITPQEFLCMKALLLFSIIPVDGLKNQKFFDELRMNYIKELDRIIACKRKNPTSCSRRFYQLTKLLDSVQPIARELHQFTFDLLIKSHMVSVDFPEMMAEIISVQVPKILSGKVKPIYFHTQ

Liver microsomes [2] = experiment: Metabolic stability in rat liver microsomes assessed as compound remaining; assay type: ADME, Microsome; note: time not given here
Liver microsomes [3] = experiment: Metabolic stability in human liver microsomes assessed as compound remaining; assay type: ADME, Microsome; note: time not given here
[4] = Solubility of the compound; assay type: physicochemical

COC(=O)C1=C(C)NC(C)=C(C(=O)OC(C)(C)C)C1c1cccc(OC)c1 (stereo unspecified)
pIC50 [1]: 6.05

CCCC1=C(C(=O)OC)C(c2ccc(F)cc2Cl)C(C#N)=C(C)N1 (stereo unspecified)
pIC50 [1]: 7.80
pIC50 (Progesterone receptor): < 5.00
pIC50 (Glucocorticoid receptor): 6.15
pIC50 (Androgen receptor): 7.00
Stability (Liver microsomes [2]): 4%
Stability (Liver microsomes [3]): 4%
solubility [4]: 5 µM (≈ 1.74 µg/mL)

COC(=O)C1=C(C)NC(C)=C(C(=O)OC(C)(C)C)C1c1cccc(C)c1 (stereo unspecified)
pIC50 [1]: 5.55

CCOC(=O)C1=C(c2ccc(Cl)cc2)NC(C)=C(C#N)C1c1ccccc1Cl (stereo unspecified)
pIC50 [1]: 5.96

COC(=O)C1=C(C)NC(C)=C(C(=O)OC(C)(C)C)C1c1ccccc1C(F)(F)F (stereo unspecified)
pIC50 [1]: 6.65

CCOC(=O)C1=C(c2ccccc2)NC(C)=C(C#N)C1c1ccccc1Cl (stereo unspecified)
pIC50 [1]: 6.03

COC(=O)C1=C(C)NC(C)=C(C(=O)OC(C)(C)C)C1c1cccc(F)c1 (stereo unspecified)
pIC50 [1]: 5.86

COC(=O)C1=C(C(F)(F)F)N(C)C(C)=C(C#N)C1c1ccc(F)cc1Cl (stereo unspecified)
pIC50 [1]: 6.56

COC(=O)C1=C(C)NC(C)=C(C(=O)OC(C)(C)C)C1c1ccccc1OC (stereo unspecified)
pIC50 [1]: 6.26

COC(=O)C1=C(C)NC(C)=C(C(=O)OC(C)(C)C)C1c1ccc(OC)cc1 (stereo unspecified)
pIC50 [1]: 5.58

COC(=O)C1=C(C)NC(C)=C(C(=O)OC(C)(C)C)C1c1ccccc1Cl (stereo unspecified)
pIC50 [1]: 6.21

COC(=O)C1=C(C)NC(C)=C(C(=O)OC(C)(C)C)C1c1ccc(F)cc1 (stereo unspecified)
pIC50 [1]: 6.54

COC(=O)C1=C(C)NC(C)=C(C(=O)OC(C)(C)C)C1c1ccc(Cl)cc1 (stereo unspecified)
pIC50 [1]: 6.50

CCCC1=C(C(=O)OC)C(c2ccccc2)C(C#N)=C(C)N1 (stereo unspecified)
pIC50 [1]: 5.13

COC(=O)C1=C(C)NC(C)=C(C#N)C1c1ccccc1Cl (stereo unspecified)
pIC50 [1]: 6.23

CC1=C(C#N)C(c2ccc(F)cc2F)C(C(=O)OC(C)(C)C)=C(C)N1 (stereo unspecified)
pIC50 [1]: 6.70

CC1=C(C#N)C(c2ccc(F)cc2)C(C(=O)OC(C)(C)C)=C(C)N1 (stereo unspecified)
pIC50 [1]: 6.48

COC(=O)C1=C(C)NC(C)=C(C(=O)OC(C)(C)C)C1c1ccc(F)cc1Cl (stereo unspecified)
pIC50 [1]: 7.11

CCN1C(C)=C(C#N)C(c2ccc(F)cc2F)C(C(=O)OC(C)(C)C)=C1C (stereo unspecified)
pIC50 [1]: 5.79

COC(=O)C1=C(C)NC(C)=C(C(=O)OC(C)(C)C)C1c1cccc(Cl)c1 (stereo unspecified)
pIC50 [1]: 6.29

CCC1=C(C(=O)OC)C(c2ccccc2Cl)C(C#N)=C(C)N1 (stereo unspecified)
pIC50 [1]: 6.63

COC(=O)C1=C(C)NC(C)=C(C(=O)OC(C)(C)C)C1c1ccc(C(F)(F)F)cc1 (stereo unspecified)
pIC50 [1]: 6.51

COC(=O)C1=C(C)NC(C)=C(C(=O)OC(C)(C)C)C1c1ccccc1F (stereo unspecified)
pIC50 [1]: 5.69

COC(=O)C1=C(C(C)C)NC(C)=C(C#N)C1c1ccccc1Cl (stereo unspecified)
pIC50 [1]: 6.68

COC(=O)C1=C(C)NC(C)=C(C(=O)OC(C)(C)C)C1c1ccc(O)cc1 (stereo unspecified)
pIC50 [1]: 5.59

COC(=O)C1=C(C)NC(C)=C(C(=O)OC(C)(C)C)C1c1ccccc1C (stereo unspecified)
pIC50 [1]: 6.68

COC(=O)C1=C(Cc2ccccc2)NC(C)=C(C#N)C1c1ccccc1Cl (stereo unspecified)
pIC50 [1]: 6.07

COC(=O)C1=C(C)NC(C)=C(C(=O)OC(C)(C)C)C1c1cccc(O)c1 (stereo unspecified)
pIC50 [1]: 5.55

COCCN1C(C)=C(C#N)C(c2ccc(F)cc2F)C(C(=O)OC(C)(C)C)=C1C (stereo unspecified)
pIC50 [1]: 5.43

CC1=C(C#N)C(C)(c2ccc(F)cc2)C(C(=O)OC(C)(C)C)=C(C)N1 (stereo unspecified)
pIC50 [1]: 6.18

COCC1=C(C(=O)OC)C(c2ccccc2Cl)C(C#N)=C(C)N1 (stereo unspecified)
pIC50 [1]: 6.18

COC(=O)C1=C(C)NC(C)=C(C(=O)OC(C)(C)C)C1c1ccc(C)cc1 (stereo unspecified)
pIC50 [1]: 4.92

COC(=O)C1=C(C)NC(C)=C(C(=O)OC(C)(C)C)C1c1cccc(C#N)c1 (stereo unspecified)
pIC50 [1]: 5.49

COC(=O)C1=C(C)NC(C)=C(C(=O)OC(C)(C)C)C1c1ccc(Cl)c(F)c1 (stereo unspecified)
pIC50 [1]: 6.24

COC(=O)C1=C(C)NC(C)=C(C(=O)OC(C)(C)C)C1c1cccc(C(F)(F)F)c1 (stereo unspecified)
pIC50 [1]: 6.15
